Literature values in patent US10585101B2, “Prostatic liquid biopsy for the detection of prostate cancer and benign prostatic hyperplasia” (WAVESENSE, INC., priority 2016, dated 2020).

System: prostate cancer
Settings: long term use

For `CC(C)(C)NC(=O)[C@H]1CC[C@H]2[C@@H]3CC[C@H]4NC(=O)C=C[C@]4(C)[C@H]3CC[C@]12C` [finasteride, Finasteride], which “risk of low-grade prostate cancer” value is on record?
Its value is “decreased the risk of low-grade prostate cancer”.
